Here are results for 3 compounds from ChEMBL document CHEMBL1146393, “Coriaheptocins A and B, the First Heptahydroxylated Acetogenins, Isolated from the Roots of Annona coriacea 1” (1997).

The structures appear in SMILES notation. ≈ marks a conversion by molar mass, not a printed value.

For this assay, the system named is KB. Kind of assay: Cytotoxicity against human KB cells. The format is functional. Particulars: read-out: ED50 (the source's name).

With `CCCCCCCCCCCC[C@@H](O)[C@H](O)CC[C@H](O)C[C@@H](O)C[C@H](O)[C@@H]1CC[C@@H]([C@H](O)CC[C@@H](O)CC2=C[C@H](C)OC2=O)O1` [CORIAHEPTOCIN A], the EC50 is 0.63 µg/mL (≈ 0.977 µM). For `CCCCCCCCCCCC[C@@H](O)[C@H](O)CC[C@H](O)C[C@@H](O)C[C@H](O)[C@@H]1CC[C@H]([C@H](O)CC[C@@H](O)CC2=C[C@H](C)OC2=O)O1` [CORIAHEPTOCIN B] the value was 0.18 µg/mL (≈ 0.279 µM); for `CC(=O)O[C@H]1C(=O)[C@@]2(C)[C@H]([C@H](OC(=O)c3ccccc3)[C@]3(O)C[C@H](OC(=O)[C@H](O)[C@@H](NC(=O)c4ccccc4)c4ccccc4)C(C)=C1C3(C)C)[C@]1(OC(C)=O)CO[C@@H]1C[C@@H]2O` [PACLITAXEL], 0.02 µg/mL (≈ 0.0234 µM).
